Residues, ends and D or L forms follow the SMILES beside them. No end group written: not given here. K(CB-TE2A) = lysine carrying the CB-TE2A chelator (for 64Cu); Cy7 = near-infrared fluorescent dye for NIRF imaging; PEGn = polyethylene glycol (n units) spacer
What was measured:
BT474 cells [1] = assay: Cellular toxicity of LDLLDL peptide by microscopy; type: cell-based, human; settings: 0.1-1000 μM/mL, up to highest concentration tested
Excerpt: (§1) A FPR-targeted peptide and its optical imaging probe were designed and synthesized: The inventors synthesized an FPR-targeted peptide agent Leu-Asp-Leu-Leu-Asp-Leu (LDLLDL: SEQ ID NO:1), which is an antagonist peptide for FPR1 receptor. The inventors have also developed an NIR optical imaging probe to evaluate the targeting capability. Specifically, the base peptide ligand was synthesized by the solid-phase method. After the peptide sequence was assembled on resin, the ivDDE protecting group was removed from the w-amino group of the lysine by treatment with hydrazine. The inventors tested varying concentrations (0.1-1000 μM/mL) of LDLLDL (SEQ ID NO:1) peptide in all four breast cancer cell types (BT474, BT549, MDA-MB-231 and MCF-7) to assess cellular toxicity.

BT549 cells = assay: Cellular toxicity of LDLLDL peptide by microscopy; type: cell-based, human; settings: 0.1-1000 μM/mL, up to highest concentration tested
Excerpt: as §1

MCF-7 cells [2] = assay: Cellular toxicity of LDLLDL peptide by microscopy; type: cell-based, human; settings: 0.1-1000 μM/mL, up to highest concentration tested
Excerpt: as §1

MDA-MB-231 cells [3] = assay: Cellular toxicity of LDLLDL peptide by microscopy; type: cell-based, human; settings: 0.1-1000 μM/mL, up to highest concentration tested
Excerpt: as §1

[4] = Solubility of the peptide; type: physicochemical
BT474 cells [5] = assay: Cellular uptake of FPR peptide by near infrared fluorescence imaging; type: cell-based, human
Procedure: (§2) To study the ability of the FPR peptide to internalize and fluorescently labeled cancer and macrophage cells, various breast cancer cell lines were treated with the peptide (5 uMol/uL) for 4 hrs. […] Fluorescence uptake was not observed in the normal human mammary epithelial cells (HEMC-control), as expected, since there is no expression of FPR receptor for HEMC.
(§3) LDLLDL-Cy7 ([SEQ ID NO:1]-Cy7) was used to treat five cancer cell lineages (MDA-MB-231, BT549, HCC1500, BT474, and MCF-7) and normal human mammary epithelial cell (HEMC) for 3 hrs at the concentrations of 5 and 10 μM/mL. After washing 3 times with cold PBS, all cells were imaged using near infrared fluorescence imaging and target specificity of the FPR peptide was evaluated.

HCC1500 cells = assay: as above; type: cell-based, human
Procedure: as §2, §3

MCF-7 cells [6] = assay: as above; type: cell-based, human; settings: 3 hrs, 5 and 10 μM/mL, FIG. 4
Procedure: as §2, §3

MDA-MB-231 cells [7] = assay: as above; type: cell-based, human; settings: 3 hrs, 5 and 10 μM/mL, FIG. 4
Procedure: as §2, §3

[8] = system: macrophage cell line RAW264.7; assay: as above; type: cell-based; settings: peptide 5 uMol/uL, 4 hrs
Procedure: as §2

[9] = system: normal human mammary epithelial cell (HEMC); assay: as above; type: cell-based
Procedure: as §2, §3

human TNBC cells = assay: Target specificity of the FPR peptide by near infrared fluorescence imaging; type: cell-based; settings: 3 hrs, 5 and 10 μM/mL
Procedure: as §3

[10] = system: MDA-MB-231 breast cancer tumor xenograph; assay: In vivo fluorescence imaging and organ biodistribution in tumor xenograph mice
Procedure: FIG. 5 depicts in accordance with various embodiments of the invention, in vivo fluorescent image of xenograft mice after 6 hours of tail vein injection. Mice were injected with fluorescent dye (Cy7) only (left panel), and peptide-Cy7 (right panel).
FIG. 6 depicts in accordance with various embodiments of the invention, the biodistribution in tumor-bearing mice after 7 hours of tail vein injection. Mice were injected with fluorescent dye only (left panel), and peptide LDLLDL-Cy7 (right panel)([SEQ ID NO:1]-Cy7).
Ten mice were implanted with breast cancer cells (MDA-MB-231) to develop breast cancer tumor xenograph models. The tumors were allowed to grow for 4 weeks before the mice were injected with 30 ul of peptide (2 nMoles). The animals were imaged using mouse fluorescence imaging after 1, 2, 3, 4, and 6 hours. FIG. 5 show the results of one of those mice experiments. […] After 7 hours the animals were sacrificed and organs extracted and imaged.

[11] = system: E0771 breast cancer tumor xenograph; assay: In vivo fluorescence imaging in tumor xenograph mice; design: species or system C57BL/6 mice; settings: 30 ul of peptide (2 nMoles), within 6 hr, rear bilateral flank tumors
Procedure: (§4) FIG. 9 depicts one of 10 mice experiments in accordance with various embodiments. Ten mice (C57BL/6 mice) were implanted with breast cancer cells (E0771) to develop breast cancer tumor xenograph model. The tumors were allowed to grow for 4 weeks before the mice were injected with 30 ul of peptide (2 nMoles). The animals were imaged using mouse fluorescence imaging after 1, 2, 3, 4, 6 hr.

[12] = system: 4T1 breast cancer tumor xenograph; assay: as above; design: species or system Balb/c mice; settings: 30 ul of peptide (2 nMoles), within 6 hr, mammary gland tumors
Procedure: as §4, with “10” for “9”, “(Balb/c” for “(C57BL/6”, “(4T1)” for “(E0771)”

[13] = system: xenograft breast cancer model with ANXA1 overexpression; assay: PET uptake in breast cancer xenograft model with ANXA1 overexpression; type: in vivo, mice
Excerpt: (§5) Without being bound to any particular theory, the inventors believe that ANXA1 is associated with tumorigenesis and progression, and the synthesized peptide imaging probe can be used as a surrogate for monitoring the tumor expression with ANXAL. To characterize target specificity, the inventors developed the breast cancer xenograft model with ANXA1 overexpression as well as an ANXA1-knockdown model using a shRNA lentiviral vector technique. […] The inventors assess the pharmacokinetic profile and tumor specific targeting potency of the new imaging probe, and its effectiveness in evaluation of tumorigenesis and progression of aggressive breast cancer. See FIG. 8 for experimental design.
Breast cancer xenograft model: In vitro studies described above identified the expression of ANXA1/FPR1 for all tested cells. […] Body weight and tumor volume is measured weekly. […]
Blood clearance and biodistribution: i) Blood clearance: After anesthesia (isoflurane 2-3%), 2 groups of 5 mice each are injected with radiolabeled LDLLDL-^64Cu ([SEQ ID NO:1]-^64Cu) (˜5 μCi) via tail vein. Retro-orbital blood samples (25 μL) are collected at various time points such as 5, 15, 30, 60, 120, 240 min and 24 h after injection and radioactivity of all samples are counted in a gamma counter (Perkin-Elmer). […] At 1 h, 2 h, 4 h, 24 h after injection, mice are scanned by small-animal PET followed by tissue radioactivity assay. […]

[14] = system: ANXA1-knockdown breast cancer xenograft; assay: PET uptake in ANXA1-knockdown xenograft model; type: in vivo, mice
Excerpt: as §5, with “design. […]” for “design.”
Evaluation of tumor uptake in ANXA1 knockdown xenograft model: The inventors evaluate the effects of ANXA1 in regulating tumorigenesis and progression using the ANXA1-KD/control breast cancer xenograft model. […] Tumor growth and/or progression of the disease is monitored up to 8 weeks after cell inoculation. […] On completion of PET/CT at 24 h after injection, a tissue radioactivity assay is performed, and tissue radioactivity is calculated and expressed as decay-corrected percentage injected dose per gram of tissue (% ID/g). The tumor radioactivity and size are compared between ANXA1-KD tumor and ANXA1-SCR tumor. […]

tumor-expressing ANXA1 = assay: In vitro target binding specificity in breast cancer cell models; type: cell-based; settings: human breast cancer cell models
Procedure: In vitro target specificity binding is evaluated in two steps: Step 1: Characterize the ANXA1/FPR1 expression baseline by examining expression levels of FPR1 and ANXA1 in five human breast cancer cell lines, MDA-MB-231, HCC1500, BT549, MCF-7, BT474, and HEMC. Obtaining protein expression by performing IHC staining using the anti-ANXA1 and anti-FPR1 antibody. The cell lines with positive staining are identified. Further, the […] of ANXA1 and FPR1 are evaluated by western blotting and qRT-PCR. The correlation between FPR1 and ANXA1 are validated, and the cells with highest FPR1 and ANXA1 expression are selected for further in vivo study. The results establish the baseline of expression of ANXA1 and FPR1 in the tested breast cancer cell lines.
Step 2: Characterization of the binding specificity of the LDLLDL-^64Cu ([SEQ ID NO:1]-^64Cu) is tested on the cell lines described above. The cells are cultured in two groups of Petri dishes. […] The suspended cells are measured for radioactivity using a gamma-counter. Disintegrations per minute per cell are calculated and reported as the peptide uptake for each cell line. […] The cell-associated radioactivity is measured, and the binding affinity is determined by the Grafit software (Erithacus, Inc). […]

[15] = organs extracted after 7 hours, FIG. 6

## CC(C)C[C@H](NC(=O)[C@H](CC(=O)O)NC(=O)[C@H](CC(C)C)NC(=O)[C@H](CC(C)C)NC(=O)[C@H](CC(=O)O)NC(=O)[C@@H](N)CC(C)C)C(=O)O [LDLLDL, Leu-Asp-Leu-Leu-Asp-Leu] (H-LDLLDL-OH; N-terminus and C-terminus assumed)
BT474 cells [1]
  cellular toxicity (cell death by microscopy): Apparent cell death could not be observed
BT549 cells
  cellular toxicity (cell death by microscopy): Apparent cell death could not be observed
MCF-7 cells [2]
  cellular toxicity (cell death by microscopy): Apparent cell death could not be observed
MDA-MB-231 cells [3]
  cellular toxicity (cell death by microscopy): Apparent cell death could not be observed
[4]
  solubility: superior

## LDLLDL-Cy7
BT474 cells [5]; 3 hrs, 5 and 10 μM/mL, FIG. 4
  uptake of LDLLDL-Cy7: weak uptake
BT474 cells [5]; peptide 5 uMol/uL, 4 hrs, Her2 line
  cell associated fluorescence: cell associated fluorescence
HCC1500 cells; 3 hrs, 5 and 10 μM/mL, FIG. 4
  uptake of LDLLDL-Cy7: substantial uptake
HCC1500 cells; peptide 5 uMol/uL, 4 hrs, ER-positive luminal line
  cell associated fluorescence: cell associated fluorescence
MCF-7 cells [6]
  uptake of LDLLDL-Cy7: weak uptake
MDA-MB-231 cells [7]
  uptake of LDLLDL-Cy7: substantial uptake
[8]
  uptake of the peptide: substantial uptake
[9]; 3 hrs, 5 and 10 μM/mL, FIG. 4
  fluorescence uptake of LDLLDL-Cy7: no fluorescence uptake
[9]; peptide 5 uMol/uL, 4 hrs, control without FPR expression
  fluorescence uptake: not observed
Human TNBC cells
  binding affinity: High binding affinity
[10]; [15]
  fluorescence in the rest of the organs: no significant fluorescence
  uptake in the tumors (extracted organs imaged): strong uptake
[10]; tail vein injection, 6 hours after injection, FIG. 5
  fluorescence in the implanted tumors: intense fluorescence
[11]
  fluorescence in the implanted tumors: intense fluorescence
[12]
  fluorescence in the implanted tumors: intense fluorescence

## LDLLDL-^64Cu (LDLLDL-{PEGn-K(CB-TE2A)}; also: 64Cu chelated by CB-TE2A)
[13]
  uptake in PET image studies: significantly high uptake
[14]
  uptake of the peptide: reduced uptake
tumor-expressing ANXA1
  targeting specificity and sensitivity: excellent specificity and sensitivity
